# Test results taken from paper PMC3898886, “P-glycoprotein (Mdr1a/1b) and breast cancer resistance protein (Bcrp) decrease the uptake of hydrophobic alkyl triphenylphosphonium cations by the brain” (Biochimica et Biophysica Acta, 2013).
# Legend:
# [1] = published value; cited from earlier work
# [2] = tissue and blood content of [3H] TPP compound after IV tail vein injection, wild type mice; conditions: 100 nmol IV; for uptake by adipose tissue / uptake by the heart / uptake by the kidneys: wild type and transgenic mice; for AUC for accumulation into the brain: WT mice
# Method: (§1) For injection the mice were placed in a restraining tube and injected by the tail vein with 100 nmol [^3H] compound (~ 400–500 nCi) in 100 μL sterile phosphate buffered saline (PBS) supplemented with 10% DMSO. A sample of the [^3H] compound solution injected was retained to calculate the specific activity, which was subsequently used to determine the tissue contents of the compound. Two WT mice and two transgenic mice were injected for each compound for each time point. […] At the indicated times after injection, the mice were killed by cervical dislocation and a blood sample of ~ 100–200 μL was obtained by cardiac puncture. The organs were then removed, cleared of blood by cutting into pieces and rinsing with saline, transferred to pre-chilled Eppendorf tubes on ice, weighed and stored at − 80 °C until processing. The tissues taken were: heart, kidneys, liver, brain, skeletal muscle (gastrocnemius) and white adipose tissue (subcutaneous). […] The mice were monitored after injection to ensure no pathology or distress.
# Tissues were thawed at room temperature and transferred to 50 mL Falcon tubes. Ice-cold methanol (~ 4 °C; 1 mL/100 mg tissue wet weight) was added to the tissue and the tissue homogenised using an Ultra Turrax homogeniser (2 × 30 s on ice). The homogenate was transferred in 1 mL batches to 1.5 mL Eppendorf tubes and centrifuged (10,000 ×g for 8 min at 4 °C). The methanol extract was decanted into a 20 mL glass scintillation vial (Wheaton) and the methanol evaporated under a stream of N2. Further ice-cold methanol (1 mL/100 mg) was added to the tissue homogenate pellets, vortexed for 1 min, centrifuged as above and the methanol extract decanted to a fresh 20 mL glass scintillation vial and evaporated. This procedure was repeated 3 more times to give 5 extracts per tissue sample. […] Scintillant (OptiPhase HiSafe II; 10 mL) was added to each vial, [^3H] […] The specific activity of the injected [^3H] compound was then used to calculate the tissue content as mol compound/g wet weight tissue.
# [3] = tested on: P-gp; assay: uptake of [3H] MitoF into tissues after pretreatment with CsA; assay type: in vivo, female C57/BL6 mice; conditions: tissues 60 min later
# Method: To assess the effects of co-administration of cyclosporin A (CsA) on the uptake of MitoF, female C57/BL6 mice (~ 20 g) were used. The mice were injected with CsA (Sandimmun, Novartis supplied as 50 mg/mL solution which was diluted 1:4 in sterile PBS and injected 100 μL at 50 mg/kg) IV by tail vein injection, or with PBS carrier, followed 30 min later with [^3H] MitoF (100 nmol) by IV tail vein injection and 60 min later the mice were killed and the tissues harvested. All procedures were approved by the University of Otago animal ethics committee.
# [4] = tested on: P-glycoprotein (Mdr1a/1b) and breast cancer resistance protein (Bcrp); assay: tissue and blood content of [3H] TPP compound after IV injection, transgenic mice lacking ABC transporters, compared with wild type; conditions: for uptake into the brain, transgenic compared to wild type mice: radioactivity in brain over 20 h; for ratio of compound in the brain relative to the blood, transgenic versus WT: 5 h after IV injection of 100 nmol; for AUC for accumulation into the brain: transgenic mice
# Method: as §1
# Tissues were thawed at room temperature and transferred to 50 mL Falcon tubes. Ice-cold methanol (~ 4 °C; 1 mL/100 mg tissue wet weight) was added to the tissue and the tissue homogenised using an Ultra Turrax homogeniser (2 × 30 s on ice). The homogenate was transferred in 1 mL batches to 1.5 mL Eppendorf tubes and centrifuged (10,000 ×g for 8 min at 4 °C). The methanol extract was decanted into a 20 mL glass scintillation vial (Wheaton) and the methanol evaporated under a stream of N2. Further ice-cold methanol (1 mL/100 mg) was added to the tissue homogenate pellets, vortexed for 1 min, centrifuged as above and the methanol extract decanted to a fresh 20 mL glass scintillation vial and evaporated. This procedure was repeated 3 more times to give 5 extracts per tissue sample. […] Scintillant (OptiPhase HiSafe II; 10 mL) was added to each vial, [^3H] DPM content measured in a scintillation counter (LKB Wallac 1217 Rackbeta) using appropriate quench corrections and the total amount of radioactivity per sample calculated. The specific activity of the injected [^3H] compound was then used to calculate the tissue content as mol compound/g wet weight tissue.
# [5] = monitoring of mice after IV injection for pathology or distress; assay type: in vivo; conditions: 100 nmol IV
# Method: as §1
# [6] = cited from earlier work
# [7] = tested on: P-gp isoforms Mdr1a and Mdr1b; set-up: method as in PMID 19722701; conditions: cited from earlier work
# [8] = 100 nmol IV, 1 to 48 h post injection
# [9] = 100 nmol IV, 1 to 20 h post injection
uptake by adipose tissue [2],uptake by the heart [2],"uptake in the liver, transgenic mice compared to controls ([4]; 100 nmol IV)","uptake into the brain, transgenic compared to wild type mice ([4]; 100 nmol IV)",Compound,octan-1-ol/PBS partition coefficient [1],uptake by the kidneys [2],"uptake into heart, kidney and white adipose tissue, transgenic versus wild type mice ([4]; 100 nmol IV)","ratio of compound in the brain relative to the blood, transgenic versus WT [4]",other results
lower uptake,less extensive uptake,increase in the uptake,greater uptake into the brain,"FCCCCCCCCCCC[P+](c1ccccc1)(c1ccccc1)c1ccccc1 [MitoF, Fluoroundecyltriphenylphosphonium]",740 ± 100,extensive uptake,no difference,increased uptake,"AUC for accumulation into the brain ([2]; 1 to 48 h post injection): 1.9 nmol·h/g wet weight; effect of CsA on uptake into the brain, muscle, fat, heart or kidney ([3]; CsA 50 mg/kg IV 30 min before 100 nmol [3H] MitoF IV): did not affect; effect of CsA on uptake into the liver ([3]; CsA 50 mg/kg IV 30 min before 100 nmol [3H] compound IV): increase uptake; increase of brain AUC, transgenic versus WT [4, 8]: ~ 9 fold; AUC for accumulation into the brain [4, 8]: 16.6 nmol·h/g wet weight"
lower uptake,less extensive uptake,not,no difference,"C[P+](c1ccccc1)(c1ccccc1)c1ccccc1 [TPMP, methyltriphenylphosphonium, reference compound]",–,–,–,–,"AUC for accumulation into the brain ([2]; 1 to 5 h post injection): 0.87 nmol·h/g wet weight; change of brain AUC, transgenic versus WT ([4]; 100 nmol IV, 1 to 5 h post injection): unchanged"
–,–,–,–,"c1ccc([P+](c2ccccc2)(c2ccccc2)c2ccccc2)cc1 [tetraphenylphosphonium cation, tetraphenylphosphonium]",–,–,–,–,effect of ablation of Mdr1a and Mdr1b on uptake across the BBB [7]: did not increase

Compound,uptake by adipose tissue [2],uptake by the heart [2],"uptake in the liver, transgenic mice compared to controls ([4]; 100 nmol IV)","uptake into the brain, transgenic compared to wild type mice ([4]; 100 nmol IV)",octan-1-ol/PBS partition coefficient [1],uptake by the kidneys [2],"uptake into heart, kidney and white adipose tissue, transgenic versus wild type mice ([4]; 100 nmol IV)","ratio of compound in the brain relative to the blood, transgenic versus WT [4]",other results
"COC1=C(OC)C(=O)C(CCCCCCCCCC[P+](c2ccccc2)(c2ccccc2)c2ccccc2)=C(C)C1=O [MitoQ, mitoquinone]",lower uptake,less extensive uptake,increase in the uptake,greater uptake into the brain,2760,extensive uptake,no difference,increased uptake,"toxicity of the injected amount [5]: non-toxic; effect of CsA on biliary excretion [6]: inhibited; proportion of an IV dose excreted by the biliary pathway ([6]; within 4 h): 25%; AUC for accumulation into the brain ([2]; 1 to 20 h post injection): 0.6 nmol·h/g wet weight; increase of brain AUC, transgenic versus WT [4, 9]: ~ 4 fold; AUC for accumulation into the brain [4, 9]: 2.3 nmol·h/g wet weight"
